Reference: PubChem BioAssay AID2060617 (Molecular Pharmacology Branch, DTP, NCI, 2025)
pIC50: −log10 of the molar value.

Test system: 485368-065-R4-J2-PDC spheroids with HUVEC/MSC, viability
Experiment: Anticancer human tumor 485368-065-R4-J2-PDC patient-derived pancreatic carcinoma cell line growth inhibition [CLK]
Conditions: for pIC50: curve of first compound; for viability, T/C: stronger effect = lower value
Excerpt: A high-throughput screen of multi-cell type tumor spheroids was designed to identify active combinations of […] and targeted small molecules. Complex spheroids include a stromal component modeled by human endothelial cells (HUVEC) and fibroblasts modeled by human mesenchymal stem cells (MSCs). The concentration ranges selected for each drug and investigational agent were based upon clinically achievable concentrations if the clinical Cmax of the agent was known.
Compounds. The drugs and investigational agents: cirtuvivint (SM08502; NSC835563), CC-671 (NSC850746), vemurafenib (NSC761431), tapotoclax (NSC804041), sotorasib (NSC818433), adagrasib (NSC831453), MRTX-1133 (NSC836407), BAY2416964 (NSC825713), copanlisib (NSC816437), inavolisib (NSC800729), abemaciclib (NSC768073), osimertinib (NSC779217), entinostat (NSC756642), eltanexor (KPT-8602, NSC794443), venetoclax (NSC766270), ceralasertib (NSC777638), bortezomib (NSC756655), olaparib (NSC753686), talazoparib (NSC767125), alisertib (NSC759677), peposertib (NSC802822), gemcitabine (NSC613327), 5-fluorouracil (NSC19893), SN-38 (NSC673596), oxaliplatin (NSC266046), paclitaxel (NSC125973), and doxorubicin (NSC123127), were obtained from the National Cancer Institute (NCI) Developmental Therapeutics Program Chemical Repository. The FDA-approved anticancer drug set is available from the Developmental Therapeutics Program at https://dtp.cancer.gov/organization/dscb/obtaining/available plates.htm. […] The stock solutions were prepared in dimethyl sulfoxide (DMSO, Sigma-Aldrich, St. Louis, MO, cat. D2650), except for the platinum complexes which were prepared in saline (Quality Biological, Gaithersburg, MD, cat. 114-055-101), at 800-fold the tested concentration and stored at -70 degrees C prior to their use. All drugs and investigational agents were tested over a range starting from a high concentration at or near the clinical Cmax and decreasing in half-log increments. If the clinical Cmax for an agent had not been determined, the highest concentration tested was 10 microM.
Cell Culture. All cells were maintained in an incubator at 37 degrees C and 5% CO2 with 95% humidity. The PDC lines were cultured according to standard operating procedures established by the NCI PDMR. Briefly, all PDCs were thawed and cultured in Matrigel-coated flasks prepared with a working solution of 1X Ham's F-12 nutrient mix, without supplementation (Invitrogen, Waltham, MA, cat. 11765054), 100 U/mL penicillin-streptomycin (Invitrogen, cat. 15140122), and 2.5% Matrigel (Corning Inc., Corning, NY, cat. 354248) for the first three passages. The 947758-054-R-J2-PDC line was cultured in 6B/Colon 1A media, which includes advanced DMEM/F-12 (Thermo Fisher Scientific, cat. 12634028), 10 mM HEPES (Thermo Fisher Scientific, cat. 15630080), 1X GlutaMAX supplement (Thermo Fisher Scientific, cat. 35050061), 0.1 mg/mL primocin (InvivoGen, cat. ant-pm-2), 10% defined fetal bovine serum, heat inactivated (HyClone Laboratories Inc., cat. SH30070.03HI), 1.25 mM N-Acetyl-L-cysteine (Sigma-Aldrich, cat. A9165), 10 mM nicotinamide (Sigma-Aldrich, cat. N0636), 1X B-27 supplement (Thermo Fisher Scientific, cat. 17504044), 1X N-2 supplement (Thermo Fisher Scientific, cat. 17502048), and 10 microM Y-27632 dihydrochloride (Tocris Bioscience, cat. 1254). The 876862-298-R-J1-PDC was cultured in 6E media, which includes all 6B/Colon 1A media components plus 50% L-WRN conditioned media (ATCC, cat. CRL-3276), 50 ng/mL recombinant human EGF recombinant protein (hEGF; Thermo Fisher Scientific, cat. PHG0311), 10 ng/mL recombinant human fibroblast growth factor 10 (hGFG-10; PeproTech, cat. 100-26), 1 ng/mL recombinant human fibroblast growth factor 2 (hFGF-2; PeproTech, cat. 100-18B), and 1 µM prostaglandin E2 (PGE2; Tocris, cat. 2296). The 227483-062-R1-J1-PDC line was cultured in Panc media, containing all 6E components except hFGF-2, with the addition of 500 nM SB-431542 (Selleckchem, cat. S1067) and 10 nM gastrin (Tocris, cat. 3006). […]

[1] = second compound 0.0316 µM, first compound 0.0316 µM
[2] = second compound 0.0316 µM, first compound 0.1 µM
[3] = second compound 0.0316 µM, first compound 0.316 µM
[4] = second compound 0.0316 µM, first compound 1 µM
[5] = second compound 0.0316 µM, first compound 3.16 µM
[6] = second compound 0.0316 µM, first compound 10 µM
[7] = second compound 0.1 µM, first compound 0.0316 µM
[8] = second compound 0.1 µM, first compound 0.1 µM
[9] = second compound 0.1 µM, first compound 0.316 µM
[10] = second compound 0.1 µM, first compound 1 µM
[11] = second compound 0.1 µM, first compound 3.16 µM
[12] = second compound 0.1 µM, first compound 10 µM
[13] = second compound 0.316 µM, first compound 0.0316 µM
[14] = second compound 0.316 µM, first compound 0.1 µM
[15] = second compound 0.316 µM, first compound 0.316 µM
[16] = second compound 0.316 µM, first compound 1 µM
[17] = second compound 0.316 µM, first compound 3.16 µM
[18] = second compound 0.316 µM, first compound 10 µM
[19] = second compound 1 µM, first compound 0.0316 µM
[20] = second compound 1 µM, first compound 0.1 µM
[21] = second compound 1 µM, first compound 0.316 µM
[22] = second compound 1 µM, first compound 1 µM
[23] = second compound 1 µM, first compound 3.16 µM
[24] = second compound 1 µM, first compound 10 µM
[25] = second compound 3.16 µM, first compound 0.0316 µM
[26] = second compound 3.16 µM, first compound 0.1 µM
[27] = second compound 3.16 µM, first compound 0.316 µM
[28] = second compound 3.16 µM, first compound 1 µM
[29] = second compound 3.16 µM, first compound 3.16 µM
[30] = second compound 3.16 µM, first compound 10 µM
[31] = second compound 10 µM, first compound 0.0316 µM
[32] = second compound 10 µM, first compound 0.1 µM
[33] = second compound 10 µM, first compound 0.316 µM
[34] = second compound 10 µM, first compound 1 µM
[35] = second compound 10 µM, first compound 3.16 µM
[36] = second compound 10 µM, first compound 10 µM
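Also: spheroids exposed to compounds for seven days.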
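For viability, T/C in this document: 100% = DMSO vehicle control wells.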

C=C(F)C(=O)N1CCN(c2nc(OCC3CCCN3C)nc3c2CCN(c2cccc4cccc(Cl)c24)C3)CC1CC#N (centres undefined) + CN1CCN(c2cc(C(=O)Nc3cc4cc(-c5cnn(C)c5)ccc4cn3)ccn2)CC1 was tested. Which pIC50 (second compound 0.0316 µM) did it give?
Its pIC50 is less than 5.00.

What about the pIC50 (second compound 0.1 µM) of the same compound?
Its pIC50 is less than 5.00.

And the pIC50 (second compound 0.316 µM)?
The pIC50 was less than 5.00.

What about the pIC50 (second compound 1 µM) of the same compound?
The pIC50 was greater than 7.50.

And the pIC50 (second compound 3.16 µM)?
Its pIC50 is greater than 7.50.

What about the pIC50 (second compound 10 µM) of the same compound?
The pIC50 was greater than 7.50.

And the viability, T/C [1]?
Its viability, T/C is 114%.

What about the viability, T/C [2] of the same compound?
The viability, T/C was 116%.

And the viability, T/C [3]?
The viability, T/C was 108%.

And the viability, T/C [4]?
Its viability, T/C is 114%.

And the viability, T/C [5]?
Its viability, T/C is 105%.

And the viability, T/C [6]?
Its viability, T/C is 110%.

And the viability, T/C [7]?
Its viability, T/C is 109%.

And the viability, T/C [8]?
The viability, T/C was 105%.

What about the viability, T/C [9] of the same compound?
Its viability, T/C is 106%.

And the viability, T/C [10]?
Its viability, T/C is 109%.

What about the viability, T/C [11] of the same compound?
Its viability, T/C is 105%.

What about the viability, T/C [12] of the same compound?
The viability, T/C was 95.3%.

And the viability, T/C [13]?
Its viability, T/C is 89.7%.

What about the viability, T/C [14] of the same compound?
The viability, T/C was 85.6%.

And the viability, T/C [15]?
The viability, T/C was 89.4%.

And the viability, T/C [16]?
Its viability, T/C is 77.8%.

What about the viability, T/C [17] of the same compound?
The viability, T/C was 77.4%.

What about the viability, T/C [18] of the same compound?
The viability, T/C was 57.4%.

And the viability, T/C [19]?
The viability, T/C was 1.02%.

What about the viability, T/C [20] of the same compound?
Its viability, T/C is 1.73%.

And the viability, T/C [21]?
Its viability, T/C is 2.07%.

What about the viability, T/C [22] of the same compound?
The viability, T/C was 1.58%.

And the viability, T/C [23]?
Its viability, T/C is 1.92%.

And the viability, T/C [24]?
Its viability, T/C is 3.55%.

What about the viability, T/C [25] of the same compound?
Its viability, T/C is 1.58%.

And the viability, T/C [26]?
Its viability, T/C is 1.31%.

And the viability, T/C [27]?
Its viability, T/C is 1.13%.

What about the viability, T/C [28] of the same compound?
Its viability, T/C is 2.84%.

What about the viability, T/C [29] of the same compound?
The viability, T/C was 1.64%.

What about the viability, T/C [30] of the same compound?
The viability, T/C was 2%.

And the viability, T/C [31]?
Its viability, T/C is 1.69%.

What about the viability, T/C [32] of the same compound?
Its viability, T/C is 2.28%.

What about the viability, T/C [33] of the same compound?
Its viability, T/C is 1.56%.

What about the viability, T/C [34] of the same compound?
The viability, T/C was 2.01%.

What about the viability, T/C [35] of the same compound?
The viability, T/C was 3.1%.

What about the viability, T/C [36] of the same compound?
Its viability, T/C is 1.56%.

What does the source list for C=CC(=O)N1CCN(c2nc(=O)n(-c3c(C)ccnc3C(C)C)c3nc(-c4c(O)cccc4F)c(F)cc23)C(C)C1 (centres undefined) + CN1CCN(c2cc(C(=O)Nc3cc4cc(-c5cnn(C)c5)ccc4cn3)ccn2)CC1?
pIC50 (second compound 0.0316 µM): < 5.00; pIC50 (second compound 0.1 µM): < 5.00; pIC50 (second compound 0.316 µM): < 5.00; pIC50 (second compound 1 µM): > 7.50; pIC50 (second compound 3.16 µM): > 7.50; pIC50 (second compound 10 µM): > 7.50; viability, T/C [1]: 107%; viability, T/C [2]: 106%; viability, T/C [3]: 99.6%; viability, T/C [4]: 104%; viability, T/C [5]: 99.5%; viability, T/C [6]: 106%; viability, T/C [7]: 96.7%; viability, T/C [8]: 121%; viability, T/C [9]: 107%; viability, T/C [10]: 108%; viability, T/C [11]: 105%; viability, T/C [12]: 102%; viability, T/C [13]: 83.3%; viability, T/C [14]: 86.6%; viability, T/C [15]: 94.9%; viability, T/C [16]: 94.1%; viability, T/C [17]: 88.9%; viability, T/C [18]: 78.7%; viability, T/C [19]: 1.22%; viability, T/C [20]: 1.11%; viability, T/C [21]: 1.36%; viability, T/C [22]: 1.9%; viability, T/C [23]: 3.44%; viability, T/C [24]: 3.58%; viability, T/C [25]: 3.01%; viability, T/C [26]: 2.65%; viability, T/C [27]: 2.4%; viability, T/C [28]: 2.51%; viability, T/C [29]: 4.69%; viability, T/C [30]: 10.6%; viability, T/C [31]: 1.58%; viability, T/C [32]: 2.84%; viability, T/C [33]: 2.36%; viability, T/C [34]: 3.44%; viability, T/C [35]: 4%; viability, T/C [36]: 8.87%
